Test results: ChEMBL document CHEMBL4334518, “Discovery and Pharmacological Studies of 4-Hydroxyphenyl-Derived Phosphonium Salts Active in a Mouse Model of Visceral Leishmaniasis” (J Med Chem, 2019)
Calls of active or inactive are those of the source. The rule behind the calls is not given here.

Key:
Leishmania donovani [1] = test: Antileishmanial activity against Leishmania donovani MHOM/ET/67/HU3 intracellular amastigotes infected in human THP1 cells after 96 hrs by prolong-gold antifade-reagent/DAPI staining based assay; type: functional, organism-based; details: MHOM/ET/67/HU3, THP-1, 96 h
Leishmania donovani [2] = test: Antileishmanial activity against Leishmania donovani MHOM/ET/67/HU3 promastigote after 72 hrs by MTT assay; type: functional, organism-based; details: MHOM/ET/67/HU3, 72 h
THP-1 = test: Cytotoxicity against human THP1 cells assessed as reduction in cell viability after 72 hrs by MTT assay; type: cell-based; details: THP-1, 72 h
[3] = Selectivity index, ratio of EC50 for cytotoxicity against human THP1 cells to EC50 for antileishmanial activity against Leishmania donovani MHOM/ET/67/HU3 amastigotes infected in human THP1 cells; type: toxicity, cell-based; details: read-out: Ratio EC50
Leishmania infantum [4] = test: Antileishmanial activity against Leishmania infantum LEM 3049 isolate intracellular amastigotes infected in human THP1 cells after 96 hrs by prolong-gold antifade-reagent/DAPI staining based assay; type: functional, organism-based; details: THP-1, 96 h, read-out: EC50
[5] = Thermodynamic solubility of the compound in 5% gamma-cyclodextrin in water (w/w) colloidal suspension; type: physicochemical; details: read-out: Therm_solubility
Leishmania infantum [6] = test: Antileishmanial activity against Leishmania infantum LEM 3049 isolate promastigotes assessed as decrease in ATP level at 0.02 to 1 uM after 30 mins by CellTiter-Glo luminescence assay relative to control; type: functional; set-up: scale not given: the % may be the effect or the level left
[7] = Drug concentration in BALB/c mouse liver infected with Leishmania infantum LEM 3049 isolate promastigotes at 1.5 mg/kg, po administered for 4 days and measured 2 days post last dose by HPLC analysis; details: in vivo, 48 h, BLD = below limit of detection
Leishmania infantum [8] = test: Antileishmanial activity against MIL/paromomycin resistant Leishmania infantum LEM 2126 isolate promastigote after 72 hrs by MTT assay; type: functional, organism-based
[9] = Half life in CD-1 mouse liver microsomes at 10 to 20 uM measured for 120 mins in presence of UDPGA by RP-HPLC analysis; type: ADME, Microsome
[10] = Half life in CD-1 mouse liver microsomes at 5 to 10 uM measured for 120 mins in presence of NADPH by RP-HPLC analysis; type: ADME, Microsome
Leishmania infantum [11] = test: Antileishmanial activity against Leishmania infantum LEM 3049 isolate promastigotes assessed as decrease in ATP level at 1 uM after 120 mins by CellTiter-Glo luminescence assay relative to control; type: functional; set-up: scale not given: the % may be the effect or the level left
[12] = Drug concentration in BALB/c mouse spleen infected with Leishmania infantum LEM 3049 isolate promastigotes at 1.5 mg/kg, po administered for 4 days and measured 2 days post last dose by HPLC analysis; details: in vivo, 48 h, BLD = below limit of detection
[13] = Primary phase half life in BALB/c mouse at 20 mg/kg, po measured for < 6 hrs by HPLC analysis; type: ADME, organism-based; details: in vivo, read-out: alphat1/2 (converted)
Leishmania infantum [14] = test: Induction of mitochondrial membrane potential loss in Leishmania infantum LEM 3049 isolate promastigotes at 0.02 uM after 30 mins by JC-1 dye based flow cytometric analysis relative to control; type: functional
Leishmania infantum [15] = test: Antileishmanial activity against MIL resistant Leishmania infantum LEM 5159 isolate intracellular amastigotes infected in human THP1 cells after 96 hrs by prolong-gold antifade-reagent/DAPI staining based assay; type: functional, organism-based; details: THP-1, 96 h
Leishmania infantum [16] = test: Induction of plasma membrane permeabilization in Leishmania infantum LEM 3049 isolate promastigotes 0.02 to 1 uM incubated for 2 hrs by SYTOX Green based flow cytometric analysis; type: functional, organism-based
Leishmania infantum [17] = test: Antileishmanial activity against Leishmania infantum LEM 3049 isolate promastigotes infected in BALB/c mouse assessed as reduction in parasite burden in spleen at 1.5 mg/kg, po administered for 4 days and measured 2 days post last dose by light microscopic method relative to control; set-up: scale not given: the % may be the effect or the level left
[18] = Plasma concentration in BALB/c mouse infected with Leishmania infantum LEM 3049 isolate promastigotes at 1.5 mg/kg, po administered for 4 days and measured 2 days post last dose by HPLC analysis; details: in vivo, 48 h, BLD = below limit of detection
[19] = Tmax in BALB/c mouse at 20 mg/kg, po measured for up to 72 hrs by HPLC analysis; type: ADME, organism-based; details: in vivo
Leishmania infantum [20] = test: Antileishmanial activity against Leishmania infantum LEM 3049 isolate promastigotes infected in BALB/c mouse assessed as reduction in parasite burden in liver at 1.5 mg/kg, po administered for 4 days and measured 2 days post last dose by light microscopic method relative to control; set-up: scale not given: the % may be the effect or the level left
[21] = Metabolic stability in human liver S9 fraction at 10 to 20 uM measured for 120 mins in presence of UDPGA by RP-HPLC analysis; type: ADME, subcellular; details: s9, 2 h
[22] = Half life in human liver microsomes at 5 to 10 uM measured for 120 mins in presence of NADPH by RP-HPLC analysis; type: ADME, Microsome
Leishmania infantum [23] = test: Induction of plasma membrane depolarization in Leishmania infantum LEM 3049 isolate promastigotes incubated for 2 hrs by DiBAC4(3) probe based flow cytometric analysis; type: functional, organism-based
[24] = Acute toxicity in BALB/c mouse at 20 mg/kg, po; type: organism-based; details: in vivo
Leishmania infantum [25] = test: Induction of apoptosis in Leishmania infantum LEM 3049 isolate promastigotes assessed as DNA fragmentation at 0.02 to 5 uM after 4 hrs by TUNEL assay; type: functional, organism-based
Leishmania infantum [26] = test: Antileishmanial activity against Leishmania infantum LEM 3049 isolate promastigotes assessed as decrease in ATP level at 0.1 uM after 120 mins by CellTiter-Glo luminescence assay relative to control; type: functional; set-up: scale not given: the % may be the effect or the level left
[27] = Apparent terminal half life in BALB/c mouse at 20 mg/kg, po measured for 6 to 72 hrs by HPLC analysis; type: ADME, organism-based; details: in vivo, read-out: betat1/2(app) (converted)
Leishmania infantum [28] = test: Antileishmanial activity against Leishmania infantum LEM 3049 isolate promastigote after 72 hrs by MTT assay; type: functional, organism-based
[29] = Cmax in BALB/c mouse at 20 mg/kg, po measured for up to 72 hrs by HPLC analysis; type: ADME, organism-based; set-up: dose 20 mg/kg, route oral; details: in vivo
Leishmania infantum [30] = test: Induction of mitochondrial membrane potential loss in Leishmania infantum LEM 3049 isolate promastigotes at 1 uM after 24 hrs by JC-1 dye based flow cytometric analysis relative to control; type: functional
Leishmania infantum [31] = test: Antileishmanial activity against Leishmania infantum LEM 3049 isolate promastigotes assessed as decrease in ATP level at 0.02 uM after 120 mins by CellTiter-Glo luminescence assay relative to control; type: functional; set-up: scale not given: the % may be the effect or the level left
Leishmania infantum [32] = test: Induction of ROS generation in Leishmania infantum LEM 3049 isolate promastigotes at 1 uM after 2 hrs by H2DCFDA staining based flow cytometric analysis relative to control; type: functional
Leishmania infantum [33] = test: Antileishmanial activity against Sb 3 resistant Leishmania infantum LEM 3329 isolate intracellular amastigotes infected in human THP1 cells after 96 hrs by prolong-gold antifade-reagent/DAPI staining based assay; type: functional, organism-based; details: THP-1, 96 h
Leishmania infantum [34] = test: Antileishmanial activity against MIL resistant Leishmania infantum LEM 5159 isolate promastigote after 72 hrs by MTT assay; type: functional, organism-based
[35] = Metabolic stability in human liver S9 fraction at 5 to 10 uM measured for 120 mins in presence of NADPH by RP-HPLC analysis; type: ADME, subcellular; details: s9, 2 h
Leishmania infantum [36] = test: Antileishmanial activity against Sb 3 resistant Leishmania infantum LEM 3329 isolate promastigote after 72 hrs by MTT assay; type: functional, organism-based
[37] = Half life in human liver microsomes at 10 to 20 uM measured for 120 mins in presence of UDPGA by RP-HPLC analysis; type: ADME, Microsome
Leishmania donovani [38] = test: Potency index, ratio of amphotericin B EC50 to test compound EC50 for antileishmanial activity against Leishmania […] amastigote infected in THP1 cells; type: functional
[39] = Plasma concentration in BALB/c mouse infected with Leishmania infantum LEM 3049 isolate promastigote at 1.5 mg/kg, po for 4 days by HPLC analysis
[40] = Solubility of the compound in water; type: physicochemical; details: buffer
Leishmania infantum [41] = test: Antileishmanial activity against MIL/paromomycin resistant Leishmania infantum LEM 2126 isolate intracellular amastigotes infected in human THP1 cells after 96 hrs by prolong-gold antifade-reagent/DAPI staining based assay; type: functional, organism-based; details: THP-1, 96 h
[42] = Selectivity index, ratio of EC50 for cytotoxicity against human MRC5 cells to EC50 for antileishmanial activity against Leishmania donovani MHOM/ET/67/HU3 amastigotes infected in human THP1 cells; type: toxicity, cell-based; details: read-out: Ratio EC50
in vitro = details: human, microsomes
Description: Half life in human liver microsomes at 20 to 40 uM measured for 120 mins in presence of NADPH by RP-HPLC analysis

## CCCCCCCCCCCCCCCCOP(=O)([O-])OCC[N+](C)(C)C [MILTEFOSINE]
Leishmania donovani [1]
  EC50: 910 nM
Leishmania donovani [2]
  EC50: 6510 nM
THP-1
  EC50: 26200 nM
[3]
  selectivity ratio: 28.8

## OCCCCCCCCCCCCCC[P+](c1ccccc1)(c1ccccc1)c1ccccc1
Leishmania donovani [1]
  EC50: 350 nM
Leishmania donovani [2]
  EC50: 330 nM
THP-1
  EC50: 3050 nM
[3]
  selectivity ratio: 8.7

## O=C(CCCCCCCCCCCCCCC[P+](c1ccccc1)(c1ccccc1)c1ccccc1)c1ccc(O)cc1O.[Br-]
Leishmania donovani [1]
  EC50: 90 nM
Leishmania infantum [4]
  EC50: 120 nM
[5]
  solubility thermodynamic: 520 µg/mL
Leishmania infantum [6]
  Activity: 50 - 74%
[7]
  Drug uptake: Bld
Leishmania infantum [8]
  EC50: 120 nM
[9]
  half-life at up to 20 µM: < 0.5 h
[10]
  half-life: < 0.5 h
Leishmania infantum [11]
  Activity: 87%
[12]
  Drug uptake: Bld
[13]
  half-life: 1 h
Leishmania infantum [14]
  Activity: 86%
Leishmania infantum [15]
  EC50: 140 nM
Leishmania infantum [16]
  Activity: inactive
Leishmania infantum [17]
  Activity: 98.9%
[18]
  Cp: Bld
[19]
  Tmax: 1 h
Leishmania infantum [20]
  Activity: 95.3%
[21]
  Stability: Stable
[22]
  half-life: > 2 h
Leishmania infantum [23]
  Activity: Dose-dependent effect
Leishmania donovani [2]
  EC50: 70 nM
[24]
  Activity: Toxic
Leishmania infantum [25]
  Activity: inactive
Leishmania infantum [26]
  Activity: 89%
[27]
  half-life: 23 h
Leishmania infantum [28]
  EC50: 80 nM
[29]
  Cmax: 182 µM
Leishmania infantum [30]
  Activity: 97%
THP-1
  EC50: 2810 nM
Leishmania infantum [31]
  Activity: 91%
Leishmania infantum [32]
  fold change (FC): 8
Leishmania infantum [33]
  EC50: 150 nM
Leishmania infantum [34]
  EC50: 110 nM
[3]
  selectivity ratio: 31.2
[35]
  Stability: Stable
Leishmania infantum [36]
  EC50: 100 nM
[37]
  half-life at up to 20 µM: > 2 h
Leishmania donovani [38]
  Ratio EC50: 2
[39]
  concentration at 96 h: > 0.09 µM
[40]
  solubility: Insoluble
Leishmania infantum [41]
  EC50: 140 nM

## COC(=O)c1ccc(OCCCCCCCCCCCCCC[P+](c2ccccc2)(c2ccccc2)c2ccccc2)cc1C
Leishmania donovani [1]
  EC50: < 1000 nM
[42]
  selectivity ratio: 2 to 27

## O=C(OCCCCCCCCCCCCCC[n+]1cccc2ccccc21)c1ccc(O)cc1O
Leishmania donovani [1]
  EC50: 800 nM
Leishmania donovani [2]
  EC50: < 200 nM
[3]
  selectivity ratio: 3.7 to 5

## O=Cc1ccc(OCCCCCCCCCCCCCC[P+](c2ccccc2)(c2ccccc2)c2ccccc2)cc1O
Leishmania donovani [1]
  EC50: < 1000 nM
[3]
  selectivity ratio: 2 to 27

## Cc1cc(O)ccc1C(=O)OCCCCCCCCCCCCCC[P+](c1ccccc1)(c1ccccc1)c1ccccc1
Leishmania donovani [1]
  EC50: 150 nM
Leishmania donovani [2]
  EC50: 90 nM
THP-1
  EC50: 1840 nM
[3]
  selectivity ratio: 12.3

## O=C(O)c1ccc(OCCCCCCCCCCCCCC[P+](c2ccccc2)(c2ccccc2)c2ccccc2)cc1O
Leishmania donovani [1]
  EC50: < 200 nM
Leishmania donovani [2]
  EC50: < 200 nM
[42]
  selectivity ratio: 2 to 27

## O=C(O)Cc1ccccc1Nc1c(Cl)cccc1Cl [DICLOFENAC]
In vitro
  half-life at 2 h, 40 µM: < 0.5 h

## O=C(OCCCCCCCCCCCC[n+]1cccc2ccccc21)c1ccc(O)cc1O
Leishmania donovani [1]
  EC50: 800 nM
Leishmania donovani [2]
  EC50: < 200 nM
[3]
  selectivity ratio: 3.7 to 5
